This assay relates to P388 leukemia ip, CD2F1 mice, survival T/C. The assay is described as follows: NCI In Vivo Anticancer Drug Screen. Data for tumor model P388 Leukemia (intraperitoneal) in CD2F1 (CDF1) mice. As to conditions: endpoint: median survival time, higher = longer survival. The gist of the method: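 Mice carrying the transplanted tumor received test compound or vehicle. Survival was recorded in each group, and the value is the treated-group measurement divided by that of the vehicle-treated control group.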

Where [1] appears, read: dose: 25.0 mg/kg/injection, schedule: Q01DX005 (ip), vehicle: saline with Tween-80.
Where [2] appears, read: dose: 50.0 mg/kg/injection, schedule: Q01DX005 (ip), vehicle: saline with Tween-80.
[3] abbreviates: dose: 60.0 mg/kg/injection, schedule: Q01DX005 (ip), vehicle: saline with Tween-80.
Where [4] appears, read: dose: 100.0 mg/kg/injection, schedule: Q01DX005 (ip), vehicle: saline with Tween-80.
The mark [5] stands for this setting: dose: 200.0 mg/kg/injection, schedule: Q01DX005 (ip), vehicle: saline with Tween-80.
Where [6] appears, read: dose: 50.0 mg/kg/injection, schedule: Q01DX009 (ip), vehicle: saline.
The mark [7] stands for this setting: dose: 100.0 mg/kg/injection, schedule: Q01DX009 (ip), vehicle: saline.
[8] abbreviates: dose: 200.0 mg/kg/injection, schedule: Q01DX009 (ip), vehicle: saline.
Setting [9] is: dose: 60.0 mg/kg/injection, schedule: Q01DX005 (ip), vehicle: Klucel (hydroxypropylcellulose) (HPC).
[10] abbreviates: dose: 120.0 mg/kg/injection, schedule: Q01DX005 (ip), vehicle: Klucel (hydroxypropylcellulose) (HPC).
[11] abbreviates: dose: 240.0 mg/kg/injection, schedule: Q01DX005 (ip), vehicle: Klucel (hydroxypropylcellulose) (HPC).
Setting [12] is: dose: 100.0 mg/kg/injection, schedule: Q04DX003 (ip), vehicle: saline with Tween-80.
[13] abbreviates: dose: 200.0 mg/kg/injection, schedule: Q04DX003 (ip), vehicle: saline with Tween-80.
The mark [14] stands for this setting: dose: 400.0 mg/kg/injection, schedule: Q04DX003 (ip), vehicle: saline with Tween-80.
[15] abbreviates: dose: 50.0 mg/kg/injection, schedule: Q01DX005 (ip), vehicle: Klucel (hydroxypropylcellulose) (HPC).

The structures appear in SMILES notation. Inconclusive results and toxic doses are left out.

As to `C1CN1P1(N2CC2)=NP(N2CC2)(N2CC2)=NP(N2CC2)(N2CC2)=NP(N2CC2)(N2CC2)=N1`, the T/C reads like this: (dose: 5.0 mg/kg/injection, schedule: Q01DX009 (ip), vehicle: saline) 195 % of control; (dose: 10.0 mg/kg/injection, schedule: Q01DX009 (ip), vehicle: saline) 222 % of control.

In the case of `O=C1C=CC2C=CC1C=C2`, the T/C reads like this: under setting [1], 116 % of control; under setting [2], 104 % of control; under setting [3], 118 % of control; under setting [4], 122 % of control.

For the compound `O=C(Nc1ccc(N=C=S)cc1Cl)c1cc(Cl)cc(Cl)c1O`, the T/C reads like this: (dose: 50.0 mg/kg/injection, schedule: Q01DX009 (ip), vehicle: Klucel (hydroxypropylcellulose) (HPC)) 119 % of control; (dose: 100.0 mg/kg/injection, schedule: Q01DX009 (ip), vehicle: Klucel (hydroxypropylcellulose) (HPC)) 122 % of control.

With `COCCN1C(N)=C(C#N)N=C2CCCC(N=C(C#N)C#N)=C21`, the T/C under setting [2] was 100 % of control, the T/C under setting [4] was 107 % of control and the T/C under setting [5] is 101 % of control.

As to `Cc1ccc(NCC2CCCN3CCCCC23)c2c(=O)c3ccccc3sc12` (configuration not stated), the T/C is 101 % of control under setting [2]; 97 % of control under setting [6]; 96 % of control under setting [4]; 99 % of control under setting [7]; 106 % of control under setting [5]; 124 % of control under setting [8].

Consider `CC(=O)OCN1C(=O)N(COC(C)=O)C(c2ccccc2)(c2ccccc2)C1=O`, for which the T/C is 104 % of control under setting [9], 105 % of control under setting [10] and 103 % of control under setting [11].

With `COC(=O)[C@H]1C[C@@H](N)[C@H](O)[C@@H]1O`, the T/C is 102 % of control (dose: 60.0 mg/kg/injection, schedule: Q01DX005 (ip), vehicle: saline); 101 % of control (dose: 120.0 mg/kg/injection, schedule: Q01DX005 (ip), vehicle: saline); 100 % of control (dose: 240.0 mg/kg/injection, schedule: Q01DX005 (ip), vehicle: saline).

`O=C(CCCCl)Oc1ccccc1`: the T/C by setting is: under setting [12], 100 % of control; under setting [13], 109 % of control; under setting [14], 104 % of control.

Take `O=C(Nc1cccc(NC(=O)Nc2cc(C(F)(F)F)ccc2Cl)c1)Nc1cc(C(F)(F)F)ccc1Cl`: the T/C under setting [9] is 89 % of control, the T/C under setting [10] is 91 % of control and the T/C under setting [11] is 100 % of control.

As to `CC(=O)OCC1OC([Se-])C(OC(C)=O)C(OC(C)=O)C1OC(C)=O.N#CCC[PH+](CCC#N)CCC#N.[Au+]` (configuration not stated), under setting [3], the T/C is 98 % of control.

As for `Oc1ccccc1-c1cc(-c2ccccc2)nc(NCCCNc2nc(-c3ccccc3)cc(-c3ccccc3O)n2)n1`, the T/C runs as follows: under setting [15], 92 % of control; (dose: 100.0 mg/kg/injection, schedule: Q01DX005 (ip), vehicle: Klucel (hydroxypropylcellulose) (HPC)) 88 % of control; (dose: 200.0 mg/kg/injection, schedule: Q01DX005 (ip), vehicle: Klucel (hydroxypropylcellulose) (HPC)) 86 % of control.

As for `CCOC(=O)c1ccc(N=C(C2=C(O)c3ccccc3C2=O)c2ccccc2)cc1`, the T/C reads like this: (dose: 25.0 mg/kg/injection, schedule: Q04DX002 (ip), vehicle: saline with Tween-80) 92 % of control; (dose: 50.0 mg/kg/injection, schedule: Q04DX002 (ip), vehicle: saline with Tween-80) 101 % of control; (dose: 100.0 mg/kg/injection, schedule: Q04DX002 (ip), vehicle: saline with Tween-80) 95 % of control.

With `COc1ccc(-c2nn(CCO)c(=O)c(C#N)c2-c2ccc(OC)cc2)cc1`, the T/C runs as follows: (dose: 25.0 mg/kg/injection, schedule: Q04DX002 (ip), vehicle: distilled water + Tween-80) 101 % of control; (dose: 50.0 mg/kg/injection, schedule: Q04DX002 (ip), vehicle: distilled water + Tween-80) 98 % of control; (dose: 100.0 mg/kg/injection, schedule: Q04DX002 (ip), vehicle: distilled water + Tween-80) 103 % of control; (dose: 200.0 mg/kg/injection, schedule: Q04DX002 (ip), vehicle: distilled water + Tween-80) 89 % of control.

Take `Cc1ccc(-c2cn3c(n2)SCC3)cc1`: the T/C is, setting by setting: (dose: 100.0 mg/kg/injection, schedule: Q04DX003 (ip), vehicle: Klucel (hydroxypropylcellulose) (HPC)) 99 % of control; (dose: 200.0 mg/kg/injection, schedule: Q04DX003 (ip), vehicle: Klucel (hydroxypropylcellulose) (HPC)) 106 % of control; (dose: 400.0 mg/kg/injection, schedule: Q04DX003 (ip), vehicle: Klucel (hydroxypropylcellulose) (HPC)) 99 % of control.

Regarding `CCn1c(=O)c2c(N(CCO)CCO)snc2n(CC)c1=O`, the T/C (dose: 100.0 mg/kg/injection, schedule: Q04DX002 (ip), vehicle: suspension in saline) was 104 % of control; the T/C (dose: 200.0 mg/kg/injection, schedule: Q04DX002 (ip), vehicle: suspension in saline) was 101 % of control; the T/C (dose: 400.0 mg/kg/injection, schedule: Q04DX002 (ip), vehicle: suspension in saline) is 102 % of control.

As for `NC(=S)Nc1ccc(C(=O)O)cc1`, the T/C under setting [12] was 100 % of control, the T/C under setting [13] was 95 % of control and the T/C under setting [14] was 109 % of control.

In the case of `COC(=O)C1C(O)C(C)C(O)C(C)/C=C\C=C(C)C(=O)Nc2c(C)c(OC(C)=O)c3c(c2O)C(=O)C(C)=C2OCOC(=C23)C(C)=CC(C)(O)C(O)C(C)C1O` (configuration not stated), the T/C (dose: 25.0 mg/kg/injection, schedule: Q01DX009 (ip), vehicle: saline) was 107 % of control; the T/C under setting [6] is 107 % of control; the T/C under setting [7] was 107 % of control; the T/C under setting [8] was 89 % of control.

In the case of `COc1ccc2cc1-c1cc(ccc1O)CCC(O)CC1CCCC(CC(O)CC2)N1` (configuration not stated), the T/C by setting is: (dose: 15.0 mg/kg/injection, schedule: Q01DX009 (ip), vehicle: Klucel (hydroxypropylcellulose) (HPC)) 100 % of control; (dose: 30.0 mg/kg/injection, schedule: Q01DX009 (ip), vehicle: Klucel (hydroxypropylcellulose) (HPC)) 107 % of control.

On to `COC1(C)CC(c2ccccc2)=NO1` (configuration not stated), for which the T/C is 96 % of control under setting [3]; 103 % of control (dose: 120.0 mg/kg/injection, schedule: Q01DX005 (ip), vehicle: saline with Tween-80); 96 % of control (dose: 240.0 mg/kg/injection, schedule: Q01DX005 (ip), vehicle: saline with Tween-80).

For `O=C(/C=C/c1ccc2c(c1)OCO2)C1CC1`, the T/C was 92 % of control (dose: 50.0 mg/kg/injection, schedule: Q01DX009 (ip), vehicle: saline with Tween-80); 92 % of control (dose: 100.0 mg/kg/injection, schedule: Q01DX009 (ip), vehicle: saline with Tween-80); 96 % of control (dose: 200.0 mg/kg/injection, schedule: Q01DX009 (ip), vehicle: saline with Tween-80).

For `O=C1c2ccccc2C(=O)N1c1ccc(Nc2nc(Nc3ccc(N4C(=O)c5ccccc5C4=O)cc3)nc(N(C3CCCCC3)C3CCCCC3)n2)cc1`, the T/C by setting is: under setting [2], 94 % of control; under setting [4], 87 % of control.

For `O=C(CCN1C(=O)c2ccccc2C1=O)C(O)CCN1C(=O)c2ccccc2C1=O` (configuration not stated), the T/C reads like this: (dose: 6.25 mg/kg/injection, schedule: Q01DX005 (ip), vehicle: saline with Tween-80) 98 % of control; (dose: 12.5 mg/kg/injection, schedule: Q01DX005 (ip), vehicle: saline with Tween-80) 107 % of control; under setting [1], 100 % of control; under setting [5], 87 % of control.

Regarding `CN(C(=O)C(F)(F)F)[Si](C)(C)C`, the T/C is 100 % of control under setting [2], 105 % of control under setting [4] and 95 % of control under setting [5].

As for `COCc1c(C)oc2c(C)c3oc(=O)cc(C)c3cc12`, the T/C reads like this: (dose: 100.0 mg/kg/injection, schedule: Q05DX002 (ip), vehicle: saline with Tween-80) 101 % of control; (dose: 200.0 mg/kg/injection, schedule: Q05DX002 (ip), vehicle: saline with Tween-80) 95 % of control; (dose: 400.0 mg/kg/injection, schedule: Q05DX002 (ip), vehicle: saline with Tween-80) 107 % of control.

As to `CCc1nc(N)nc(N)c1-c1ccc(N(C)C)cc1`, the T/C is 97 % of control (dose: 6.25 mg/kg/injection, schedule: Q01DX005 (ip), vehicle: Klucel (hydroxypropylcellulose) (HPC)); 98 % of control (dose: 12.5 mg/kg/injection, schedule: Q01DX005 (ip), vehicle: Klucel (hydroxypropylcellulose) (HPC)); 96 % of control (dose: 25.0 mg/kg/injection, schedule: Q01DX005 (ip), vehicle: Klucel (hydroxypropylcellulose) (HPC)); 95 % of control under setting [15].
